From PubChem BioAssay (NCI) come the findings set out here.

Test systems include ACHN renal; CCRF-CEM leukemia; K-562 leukemia; SF-268 CNS; SK-MEL-5 melanoma; SNB-75 CNS; SW-620 colon; U251 CNS.
Assay in all cases: DTP human tumour cell line panel, 48 h

Where “and” joins values, the source holds several entries; their conditions need not be identical. Identical values can stand only once.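 Method: 48-hour compound exposure of cells in 96-well plates, five concentrations, linear interpolation of endpoints. GI50 = concentration required for 50% inhibition of growth. At the TGI there is no net growth.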

A word on the GI50: it is the concentration giving 50% growth inhibition. As a reminder, the TGI is the concentration giving total growth inhibition. Read a low TGI as greater sensitivity of the cells. Turning to `NC(Cc1c[nH]c2cccc(F)c12)C(=O)O` (stereo not drawn), the GI50 was 679 µM with ACHN renal; 68.5 µM and 269 µM with K-562 leukemia; 801 µM in the test with SF-268 CNS; 20.1 µM and 154 µM with SK-MEL-5 melanoma; 77.2 µM and 726 µM in the test with SNB-75 CNS; 47.7 µM and 279 µM with SW-620 colon. Moreover, in the test on U251 CNS, the GI50 was 50.8 µM and 340 µM. For the same compound, the TGI with ACHN renal was over 4500 µM; with CCRF-CEM leukemia it was over 4500 µM; in the test with K-562 leukemia it was over 4500 µM; in the test on SF-268 CNS it was over 4500 µM; in the test on SK-MEL-5 melanoma, 54.7 µM and 458 µM; with SNB-75 CNS, 2790 µM. The results for the TGI in the test on SW-620 colon and in the test with U251 CNS were 1020 µM and 1280 µM, respectively.

Turning to `COc1cccc(-c2nn(-c3ccccc3)cc2-c2ccnc(NCCCNS(=O)(=O)c3ccc(C(F)(F)F)cc3)c2)c1`, the GI50 is 4.8 µM with ACHN renal; 5.07 µM in the test with CCRF-CEM leukemia; 3.06 µM with K-562 leukemia; 6.88 µM in the test on SF-268 CNS; 2.18 µM with SK-MEL-5 melanoma; 5.1 µM in the test with SNB-75 CNS. The GI50 with SW-620 colon was 11.2 µM; in the test on U251 CNS, 5.63 µM. Besides, the TGI in the test on ACHN renal was over 100 µM; in the test on CCRF-CEM leukemia, over 100 µM; in the test with K-562 leukemia, over 100 µM; in the test with SF-268 CNS, over 100 µM; in the test with SK-MEL-5 melanoma it was 5.04 µM; in the test with SNB-75 CNS, over 100 µM. The TGI with SW-620 colon and with U251 CNS was over 100 µM throughout.

On to `CCS(=O)(=O)N1CCN(c2ccc(Nc3ncc(C(N)=O)c(NC4CC4)n3)cc2)CC1`, for which the GI50 is 12.5 µM with ACHN renal; 0.749 µM in the test with CCRF-CEM leukemia; 4.94 µM in the test with K-562 leukemia; 13.9 µM in the test on SF-268 CNS; 3.13 µM in the test on SK-MEL-5 melanoma; 2.46 µM with SNB-75 CNS. The figures for the GI50 with SW-620 colon and in the test on U251 CNS were 20.6 µM and 54.1 µM, respectively. Besides, the TGI in the test with ACHN renal is 82.8 µM; in the test on CCRF-CEM leukemia, 10.9 µM; with K-562 leukemia, over 100 µM; in the test with SF-268 CNS, 52.9 µM; with SK-MEL-5 melanoma it was 26.6 µM; with SNB-75 CNS, 9.53 µM. Moreover, the TGI is 61.9 µM in the test with SW-620 colon and over 100 µM in the test with U251 CNS.

For the compound `O=C(COc1cccc(/C=C2\Oc3ccc4ccccc4c3C2=O)c1)c1ccc([N+](=O)[O-])cc1`, the GI50 in the test on ACHN renal is 60.2 µM; with CCRF-CEM leukemia it was 3.96 µM; in the test on K-562 leukemia it was 12.4 µM; in the test on SF-268 CNS it was 13.3 µM; with SK-MEL-5 melanoma, 13 µM; in the test with SNB-75 CNS it was 18.9 µM. In addition, the GI50 with SW-620 colon was 14 µM; with U251 CNS, 14.7 µM. Besides, the TGI in the test on ACHN renal is over 100 µM; in the test with CCRF-CEM leukemia, 17.4 µM; in the test with K-562 leukemia, 39.4 µM; with SF-268 CNS it was 27.2 µM; in the test on SK-MEL-5 melanoma, 34.8 µM; in the test on SNB-75 CNS, 53 µM. Also, the TGI turned out to be 27 µM in the test on SW-620 colon and 27.8 µM in the test with U251 CNS.

Turning to `CCOP(=O)(OCC)C(NC(c1ccccc1)c1ccccc1)c1ccc(C(C)C)cc1` (stereo not drawn), the GI50 in the test with ACHN renal was 2.64 µM; in the test with CCRF-CEM leukemia it was 3.39 µM; in the test with K-562 leukemia, 3.48 µM; with SF-268 CNS, 7.93 µM; in the test on SK-MEL-5 melanoma, 3.35 µM; with SNB-75 CNS it was 5.28 µM. For the same compound, the GI50 is 4.08 µM with SW-620 colon and 3.63 µM with U251 CNS. Also, the TGI with ACHN renal was 7.27 µM; with CCRF-CEM leukemia, 25.5 µM; in the test with K-562 leukemia it was 14.8 µM; with SF-268 CNS, 69.5 µM; in the test on SK-MEL-5 melanoma, 7.86 µM; with SNB-75 CNS, 25.9 µM. The total growth inhibition concentration (TGI) in the test with SW-620 colon was 20.3 µM; with U251 CNS, 13.9 µM.

`CC1(C)CN(CCNc2nccc(-c3c(-c4cccc(O)c4)nc4sccn34)n2)S(=O)(=O)N1`: the GI50 is 7.07 µM in the test with ACHN renal; 7.25 µM with CCRF-CEM leukemia; 6.46 µM in the test on K-562 leukemia; 21.8 µM with SF-268 CNS; 1.29 µM with SK-MEL-5 melanoma; 5.14 µM in the test with SNB-75 CNS. The figures for the GI50 in the test on SW-620 colon and in the test with U251 CNS were 15.7 µM and 8.78 µM, respectively. Also, the TGI with ACHN renal is over 33.2 µM; in the test with CCRF-CEM leukemia, over 33.2 µM; with K-562 leukemia, over 33.2 µM; with SF-268 CNS it was over 33.2 µM; with SK-MEL-5 melanoma, 12.5 µM; in the test with SNB-75 CNS, over 33.2 µM. Further, the TGI in the test on SW-620 colon and in the test with U251 CNS was over 33.2 µM in each case.

On to `CC1(C)CC[C@]2(CO)CC[C@]3(C)C(=CC[C@@H]4[C@@]5(C)CCNCC(C)(C)[C@@H]5CC[C@]43C)[C@@H]2C1`, for which the GI50 in the test with ACHN renal is 4.91 µM; with CCRF-CEM leukemia, 5.47 µM; in the test on K-562 leukemia, 2.6 µM; in the test on SF-268 CNS it was 8.98 µM; in the test with SK-MEL-5 melanoma, 1.86 µM; in the test on SNB-75 CNS it was 10.1 µM. In addition, the GI50 in the test with SW-620 colon is 1.97 µM; with U251 CNS, 3.53 µM. For the same compound, the TGI came to 16.6 µM with ACHN renal; 23.1 µM with CCRF-CEM leukemia; 16.5 µM with K-562 leukemia; 25.4 µM in the test on SF-268 CNS; 3.64 µM in the test with SK-MEL-5 melanoma; 23 µM in the test on SNB-75 CNS. For the same compound, the TGI came to 4.41 µM in the test with SW-620 colon and 13.5 µM with U251 CNS.

In the case of `COc1ccc2c(c1)C(=O)c1c-2n(CCCCl)c(=O)c2cc(N)ccc12`, the GI50 in the test on ACHN renal was 98.4 µM; in the test with CCRF-CEM leukemia, over 44.5 µM; in the test on K-562 leukemia, over 48.7 µM; in the test on SF-268 CNS it was over 75.4 µM; in the test on SK-MEL-5 melanoma it was 51 µM; with SNB-75 CNS, over 51.7 µM. In addition, the results for the GI50 with SW-620 colon and with U251 CNS were over 68.1 µM and over 51.6 µM, respectively. Further, the TGI with ACHN renal was over 100 µM; with CCRF-CEM leukemia it was over 59.4 µM; in the test with K-562 leukemia, over 100 µM; in the test on SF-268 CNS, over 100 µM; with SK-MEL-5 melanoma, over 100 µM; with SNB-75 CNS, over 85.7 µM. Besides, the TGI with SW-620 colon and in the test with U251 CNS was over 100 µM in each case.

Take `C(=C\c1ccc(OCC2CO2)cc1)/C1=NCOC1` (stereo not drawn): the GI50 in the test with ACHN renal is 5.47 µM; in the test on CCRF-CEM leukemia, 2.89 µM; in the test on K-562 leukemia it was 4.23 µM; in the test with SF-268 CNS, 7.3 µM; in the test on SK-MEL-5 melanoma it was 12.6 µM; in the test on SNB-75 CNS it was 16.6 µM. Further, the results for the GI50 with SW-620 colon and with U251 CNS were 6.1 µM and 10.1 µM, respectively. Further, the TGI in the test on ACHN renal is 19.5 µM; with CCRF-CEM leukemia it was 13.3 µM; in the test with K-562 leukemia it was over 100 µM; with SF-268 CNS it was 33.8 µM; with SK-MEL-5 melanoma it was 26.6 µM; with SNB-75 CNS it was 31.6 µM. Further, the TGI stood at 22.5 µM in the test with SW-620 colon and 25 µM in the test on U251 CNS.
